Holding throughout (format): in vivo, C57BL/6 mice
Assay [1] concerns mouse animal model with emphysema induced by porcine pancreatic elastase (PPE). Nature of the assay: Immune cells in bronchoalveolar lavage fluid of PPE-induced emphysema mice. The settings on record: BAL fluid day 4. An excerpt: The present inventors performed an experiment to determine whether regorafenib has activity capable of treating chronic obstructive pulmonary disease. The initial response induced by PPE (porcine pancreatic elastase) representatively includes immune responses that occur in damaged lung tissue. The activated immune response promotes the proliferation of various immune cells and the secretion of various inflammatory mediators. Specifically, the overall number of immune cells increases with an increase in individual immune cells involved in the immune response. In particular, an increase in the numbers of macrophages, lymphocytes, eosinophils, and neutrophils is observed. The increase in the number of these cells can be confirmed through a bronchoalveolar lavage (BAL) fluid test.
Therefore, in the present invention, mice with chronic obstructive pulmonary disease, particularly emphysema, in which alveolar damage was induced by reducing elastin content using PPE, were prepared and then treated with regorafenib to thus analyze whether chronic obstructive pulmonary disease was ameliorated. Specifically, 6-week-old C57BL/6 mice were purchased and acclimatized for one week. Thereafter, the acclimatized 7-week-old mice (average 25 g) were orally administered with 200 µl of regorafenib (SelleckChem, BAY 73-4506) at a concentration of 5 mg/kg. […] The stained slide was analyzed and quantified using a microscope.
According to the method described above, a mouse animal model of chronic obstructive pulmonary disease was prepared by administering the mouse lungs with 5U of PPE, and in order to verify whether the immune response was modulated, one day before administration of PPE and on days 2 and 3 after administration of PPE, regorafenib (5 mg/kg) was administered thereto, and on day 4, bronchoalveolar lavage fluid was obtained and the immune cells therein were stained to thus quantitatively analyze the type of immune cells and the number of individual cells. […]

Assay [2] has the same test system. Nature of the assay: Alveolar size (mean linear intercept, Lm) in PPE-induced emphysema mice. Conditions: regorafenib 5 mg/kg oral for one week from two weeks after PPE 5U nasal; lungs on week 3, H&E. An excerpt:
One of the pathological indicators of chronic obstructive pulmonary disease is changed alveolar size. Changes in the alveolar size can be analyzed by quantifying the mean linear intercept (Lm) value, representing the average distance between the alveolar walls, in a microscopic field of view. When chronic obstructive pulmonary disease is induced, this value increases, indicating an increase in the alveolar size.
Therefore, the present inventors analyzed whether it is possible to alleviate changes in lung structure by measuring the change in Lm value due to treatment with regorafenib in a mouse animal model with emphysema, a chronic obstructive pulmonary disease, prepared over three weeks through administration of PPE (FIG. 2A).
Specifically, 6-week-old C57BL/6 mice were acclimatized for one week, after which the acclimatized 7-week-old mice (average 25 g) were subjected to nasal administration with saline and PPE [elastase from porcine pancreas] (EPC, EC134) at a concentration of 5U. […] The prepared block was cut using a sectioning machine, attached to a slide, subjected to H&E staining, and then quantified by measuring the Lm value based on microscopic images.

For assay [3] the test system is unchanged. Nature of the assay: Lung function (flexiVent) in PPE-induced emphysema mice. Conditions: regorafenib 5 mg/kg oral for one week from two weeks after PPE 5U nasal; flexiVent on week 3. An excerpt:
In addition, the present inventors performed an experiment to determine whether regorafenib is able to restore lost function of damaged lungs in order to confirm whether regorafenib is able to treat chronic obstructive pulmonary disease.
Specifically, 6-week-old C57BL/6 mice were purchased and acclimatized for one week, after which the acclimatized 7-week-old mice (average 25 g) were subjected to nasal administration with saline and PPE [elastase from porcine pancreas] (EPC, EC134) at a concentration of 5U. Two weeks after administration, the mice were orally administered with 200 µl of regorafenib (SelleckChem, BAY 73-4506) at a concentration of 5 mg/kg for one week. Then, the mice were anesthetized using 300 µl of anesthetic on week 3, after which the lung function of each mouse was measured using a flexiVent (system for measuring the function of lungs) and quantified by subtracting the error value therefrom.

`CNC(=O)c1cc(Oc2ccc(NC(=O)Nc3ccc(Cl)c(C(F)(F)F)c3)c(F)c2)ccn1` [regorafenib]: in assay [1] (regorafenib 5 mg/kg oral), the numbers of eosinophils entry is listed as “significantly decreased” and the numbers of neutrophils result is given as “significantly decreased”. For the same molecule, the “decrease of the number of immune cells increased due to PPE” value in assay [1] (regorafenib 5 mg/kg oral one day before and on days 2 and 3 after PPE 5U nasal) is listed as “about 50%”. Besides, the “decrease of Lm value compared to the PPE treatment group” value in assay [2] is given as “about 50%”. Also, the lung function indicators entry in assay [3] is on record as “restored”.

Source of the values: patent US20230061201A1, “COMPOSITION FOR PREVENTING OR TREATING CHRONIC OBSTRUCTIVE PULMONARYDISEASE COMPRISING REGORAFENIB AS ACTIVE INGREDIENT” (Chungbuk National University Industry-Academic Cooperation …, priority 2021, published 2023).
